Where a SMILES comes first, the peptide text is derived from it. The star is where a group is joined. pNA = O=[N+]([O-])c1ccc(N*)cc1
Key:
Assay type in all cases: biochemical
[1] = biological target: dipeptidyl aminopeptidase I (Aspergillus oryzae, UniProt Q2UH35); experiment: relative activity on mono-, di- and tri-peptide para-nitroanilide substrates; details: enzyme diluted 100-fold, pH 7.5, ambient temperature; for Activity (mOD/min): substrate 2 mg/ml stock
Protocol: The relative activity of various mono-, di-, and tri-peptide para-nitroanilide substrates were assayed relative to Ala-Pro-pNA with the purified dipeptidyl aminopeptidase I diluted 100-fold in 50 mM sodium phosphate pH 7.5 buffer. Each substrate was dissolved in DMSO to a concentration of 100 mg/ml and then diluted 50 fold in 50 mM sodium phosphate pH 7.5 buffer to 2 mg/ml. The assay was performed by mixing 100 μl of the substrate solution with 100 μl of the dipeptidyl aminopeptidase I solution and monitoring the change in absorbance at 405 nm and ambient temperature.

[2] = substrate: C[C@H](N)C(=O)N1CCC[C@H]1C(=O)Nc1ccc([N+](=O)[O-])cc1; experiment: kinetic parameters (Lineweaver-Burke plot) for dipeptidyl aminopeptidase I substrates; details: other: 50 mM sodium phosphate pH 7.5
Protocol: (§1) The kinetic parameters for various dipeptidyl aminopeptidase I substrates was determined using the following protocol. The substrates included Ala-Pro-pNA, Asp-Pro-pNA, and Ala-Ala-pNA. Purified dipeptidyl aminopeptidase I with an A280 of 1.521 was diluted 25-fold for Ala-Pro-pNA, 20-fold for Asp-Pro-pNA, and 10-fold for Ala-Ala-pNA in water. Each substrate was dissolved in DMSO to a concentration of 100 mg/ml and then diluted 50 fold in 50 mM sodium phosphate pH 7.5 buffer to 2 mg/ml. In a 96 well microtiter plate, 10 μl of purified dipeptidyl aminopeptidase I was incubated with each substrate as follows except the 200 μl substrate assay was not performed with the Asp-Pro-pNA substrate, and the absorbance at 405 nm was measured for 3 minutes: • 1. 200 μl of 2 mg/ml substrate+0 μl of 50 mM sodium phosphate buffer pH 7.5 • 2. 100 μl of 2 mg/ml substrate+100 μl of 50 mM sodium phosphate buffer pH 7.5 • 3. 50 μl of 2 mg/ml substrate +150 μl of 50 mM sodium phosphate buffer pH 7.5 • 4. 25 μl of 2 mg/ml substrate+175 μl of 50 mM sodium phosphate buffer pH 7.5 • 5. 10 μl of 2 mg/ml substrate+190 μl of 50 mM sodium phosphate buffer pH 7.5 • 6. 5 μl of 2 mg/ml substrate+195 μl of 50 mM sodium phosphate buffer pH 7.5

[3] = substrate: C[C@H](N)C(=O)N[C@@H](C)C(=O)Nc1ccc([N+](=O)[O-])cc1; experiment: as above; details: other: 50 mM sodium phosphate pH 7.5
Protocol: as §1

[4] = substrate: N[C@@H](CC(=O)O)C(=O)N1CCC[C@H]1C(=O)Nc1ccc([N+](=O)[O-])cc1; experiment: as above; details: other: 50 mM sodium phosphate pH 7.5
Protocol: as §1

Molecule: C[C@H](N)C(=O)N1CCC[C@H]1C(=O)Nc1ccc([N+](=O)[O-])cc1 [Ala-Pro-pNA] (H-Ala-Pro-pNA)
- Percent Activity Retative to Ala-Pro-pNA [1]: 100%
- Activity (mOD/min) [1]: 244 mOD/min

Molecule: CC(C)C[C@H](N)C(=O)Nc1ccc([N+](=O)[O-])cc1 [Leu-pNA]
- Percent Activity Retative to Ala-Pro-pNA [1]: 0%
- Activity (mOD/min) [1]: 0 mOD/min

Molecule: C[C@H](N)C(=O)Nc1ccc([N+](=O)[O-])cc1 [Ala-pNA]
- Percent Activity Retative to Ala-Pro-pNA [1]: 0%
- Activity (mOD/min) [1]: 0 mOD/min

Molecule: N=C(N)NCCC[C@H](N)C(=O)N1CCC[C@H]1C(=O)Nc1ccc([N+](=O)[O-])cc1 [Arg-Pro-pNA] (H-Arg-Pro-pNA)
- Percent Activity Retative to Ala-Pro-pNA [1]: 42.17%
- Activity (mOD/min) [1]: 103 mOD/min

Molecule: C[C@H](N)C(=O)N[C@@H](C)C(=O)Nc1ccc([N+](=O)[O-])cc1 [Ala-Ala-pNA] (H-Ala-Ala-pNA)
- Percent Activity Retative to Ala-Pro-pNA [1]: 12.4%
- Activity (mOD/min) [1]: 30.2 mOD/min

Molecule: CC(C)[C@H](N)C(=O)N[C@@H](C)C(=O)Nc1ccc([N+](=O)[O-])cc1 [Val-Ala-pNA] (H-Val-Ala-pNA)
- Percent Activity Retative to Ala-Pro-pNA [1]: 20.3%
- Activity (mOD/min) [1]: 49.5 mOD/min

Molecule: NCC(=O)N1CCCC1C(=O)Nc1ccc([N+](=O)[O-])cc1 (stereo not drawn) [Gly-Pro-pNA]
- Percent Activity Retative to Ala-Pro-pNA [1]: 51.25%
- Activity (mOD/min) [1]: 125 mOD/min

Molecule: NCC(=O)N[C@@H](CCCN=C(N)N)C(=O)Nc1ccc([N+](=O)[O-])cc1 [Gly-Arg-pNA] (H-Gly-Arg-pNA)
- Percent Activity Retative to Ala-Pro-pNA [1]: 0%
- Activity (mOD/min) [1]: 0 mOD/min

Molecule: N[C@@H](CC(=O)O)C(=O)N1CCC[C@H]1C(=O)Nc1ccc([N+](=O)[O-])cc1 [Asp-Pro-pNA] (H-Asp-Pro-pNA)
- Percent Activity Retative to Ala-Pro-pNA [1]: 29%
- Activity (mOD/min) [1]: 70.95 mOD/min

Molecule: C[C@H](N)C(=O)N[C@@H](C)C(=O)N1CCC[C@H]1C(=O)Nc1ccc([N+](=O)[O-])cc1 [Ala-Ala-Pro-pNA] (H-Ala-Ala-Pro-pNA)
- Percent Activity Retative to Ala-Pro-pNA [1]: 4.3%
- Activity (mOD/min) [1]: 10.6 mOD/min

Molecule: NCC(=O)N[C@@H](CCC(=O)O)C(=O)Nc1ccc([N+](=O)[O-])cc1 [Gly-Glu-pNA] (H-Gly-Glu-pNA)
- Percent Activity Retative to Ala-Pro-pNA [1]: 0%
- Activity (mOD/min) [1]: <2 mOD/min

B1: dipeptidyl aminopeptidase I (Aspergillus oryzae RIB40) (protein)
chain: LDVPRKPHAPTGEGSKRLTFNETVVKQAITPTSRSVQWLSGAEDGSYVYAAEDGSLTIENIVTNESRTLIPADKIPTGKEAFNYWIHPDLSSVLWASNHTKQYRHSFFADYYVQDVESLKSVPLMPDQEGDIQYAQWSPVGNTIAFVRENDLYVWDNGTVTRITDDGGPDMFHGVPDWIYEEEILGDRYALWFSPDGEYLAYLSFNETGVPTYTVQYYMDNQEIAPAYPWELKIRYPKVSQTNPTVTLSLLNIASKEVKQAPIDAFESTDLIIGEVAWLTDTHTTVAAKAFNRVQDQQKVVAVDTASNKATVISDRDGTDGWLDNLLSMKYIGPIKPSDKDAYYIDISDHSGWAHLYLFPVSGGEPIPLTKGDWEVTSILSIDQERQLVYYLSTQHHSTERHLYSVSYSTFAVTPLVDDTVAAYWSASFSANSGYYILTYGGPDVPYQELYTTNSTKPLRTITDNAKVLEQIKDYALPNITYFELPLPSGETLNVMQRLPPGFSPDKKYPILFTPYGGPGAQEVTKRWQALNFKAYVASDSELEYVTWTVDNRGTGFKGRKFRSAVTRQLGLLEAEDQIYAAQQAANIPWIDADHIGIWGWSFGGYLTSKVLEKDSGAFTLGVITAPVSDWRFYDSMYTERYMKTLSTNEEGYETSAVRKTDGFKNVEGGFLIQHGTGDDNVHFQNSAALVDLLMGDGVSPEKLHSQWFTDSDHGISYHGGGVFLYKQLARKLYQEKNRQTQVLMHQWTKKDLEE
- Km [2]: 140 µM
- kcat [2]: 9.605 s⁻¹
- Km [3]: 1080 µM
- kcat [3]: 1.775 s⁻¹
- Km [4]: 632 µM
- kcat [4]: 4.072 s⁻¹
